Format in all cases: in vivo, Caenorhabditis elegans
One series relates to DA neurons. Description: toxin-induced degeneration of DA neurons in dat-1p::yfp transgenic animals. The source says: In some cases, the entire dendritic processes were missing.
Series [1] concerns C. elegans. Nature of the series: microfluidic electrotaxis assay of toxin/drug-exposed worms (U-turn, head movement, speed). Particulars: for movement speed response of toxin-treated animals: abnormal = slower than 215 μm/sec, 3V/cm. As to the method:
The toxins 6-OHDA (catalog no. 162957), Rotenone (catalog no. R8875) and Acetaminophen (catalog no. A7085) were obtained from Sigma Aldrich. MPTP (M325913) was from Toronto Research Chemicals. […] 6-OHDA solution is sensitive to light and therefore it was kept in the dark. A stock solution of Acetaminophen (10 mM) was prepared and stored at −20° C. At the time of toxin assay, the stock solution was diluted to 100 μM final concentration.
(§1) All assays with toxins were done using L1 stage worms. Synchronized L1 worms were exposed to toxin solutions for different time periods with mild shaking on a rotating platform. At the end of the time period, tubes were briefly centrifuged to remove drug solution and worm pellets were diluted with […] and were plated on normal NG agar plates.
(§2) Experimental design was as described Rezai et al., ibid. Electric field was fixed at 3V/cm. Then, the direction of the electric field was changed and the worm was allowed to move the same distance in the opposite direction. The movement of each worm was recorded using a Nikon Coolpix P5100, NY, USA. The captured videos were analyzed using the ImageJ NIH image module. Three parameters—U-turn, head movement and speed—were used to characterize the behaviour of animals. For U-turn, the time (in seconds) that was taken by a moving worm to come to a stop and turn to the opposite direction after the electric field direction was reversed was recorded. Most wild type worms (˜90%, see results) were able to change direction in less than 10 seconds. Worms taking 10 sec or longer were considered to have an abnormal response. For the head movement analysis, the number of full sine waves (i.e., spanning up to three-fourth of the channel width) that a worm makes within a 30 sec. duration were determined. Wild-type worms make full sine waves in majority of cases with failures typically being less than 25%. Therefore, a threshold of 25% to place a worm in normal or abnormal category was used. […] To analyze speed, the time taken by a worm to move a distance of 5000 μm in a given direction was used. Speed was measured in both directions of movement and the average value was used as a true response. Wild type animals typically moved with a speed of 215 μm/sec and above. Therefore, animals moving slower than 215 μm/sec were considered to have an abnormal response.

Series [2] has as its system C. elegans. Particulars: for movement defects on plate: lowered concentration and exposure time, slow reaction when touched on head or tail. As to the method: as §1
These phenotypes are in agreement with published studies.

For series [3], the system named is C. elegans. Description: channel-based drug-screening assay: acetaminophen pre-treatment against neurotoxins (electrotaxis). Here is the method: The toxins 6-OHDA (catalog no. 162957), Rotenone (catalog no. R8875) and Acetaminophen (catalog no. A7085) were obtained from Sigma Aldrich. MPTP (M325913) was from Toronto Research Chemicals. Desired concentrations of 6-OHDA (100 μM), MPTP (700 μM) and Rotenone (25 μM) were prepared in M9 one day before the assay and stored at −20° C. 6-OHDA solution is sensitive to light and therefore it was kept in the dark. A stock solution of Acetaminophen (10 mM) was prepared and stored at −20° C. At the time of toxin assay, the stock solution was diluted to 100 μM final concentration.
as §2
In order to establish a baseline to screen for neuroprotective compounds in a channel-based assay, the neuroprotective effect of acetaminophen (a known analgesic) against neurodegeneration caused by toxinsas tested.
Pre-treatment of worms with acetaminophen (100 uM, 24 hrs exposure during L1 stage) prior to treatment with 6-0H DA as above, conferred a significant protection on the worms as evidenced by the electrotactic response of worms using all 3 movement parameters described above. The protection ranged from 30% to 50% (FIG. 34). […] The defect in head movement was decreased by 40% and U-turn by 30%. The impact of Acetaminophen on Rotenone-induced neuronal toxicity and provide first evidence that Acetaminophen protects DA neurons from the toxic effects of Rotenone. While the head movement defect was decreased by 20%, abnormalities in U-turn response and speed were lower by 50% and 38%, respectively.

The values that follow come from patent US8702939B2, “Electrotaxis methods and devices” (McMaster University, priority 2010, dated 2014).

As for `NCCc1cc(O)c(O)cc1O` [6-OHDA, 6-hydroxydopamine], the “degeneration of DA neurons” value with DA neurons (6-OHDA 100 μM for 4 hours) was “did not cause an obvious degeneration of DA neurons”. Also, in the series on DA neurons (6-OHDA 100 μM, longer exposure ~71 hrs), the “animals with DA neuron (CEP dendritic process) defects” value is 15%. The “electrotactic response in channel” value is “abnormal electrotactic response” in the series with C. elegans [1] (100 μM 6-OHDA for as little as 30 min); “practically immobile and unresponsive to the electric field stimulus” in the series with C. elegans [1] (5 mM 6-OHDA treated L1 animals). Moreover, the “U-turn defect, proportion of worms” value in the series on C. elegans [1] (6-OHDA 100 μM, within 4 hour exposure of L1 worms, electric field 3V/cm, abnormal = 10 sec or longer) was 30-80%. Besides, the “defective head movement response, proportion of worms” value is recorded as “about one-third” with C. elegans [1] (6-OHDA, 30 minutes toxin exposure) and 61% in the series on C. elegans [1] (6-OHDA, 4 hour exposure). Further, the “defective head movement response, proportion of animals” value with C. elegans [1] (6-OHDA, 1 hr exposure) is recorded as 50%. Also, the “movement speed response of toxin-treated animals” value in the series on C. elegans [1] is “most defective response compared to the other 2 toxins”. Further, the “phenotype of treated L1 animals” value in the series on C. elegans [2] (5 mM 6-OHDA) is “extreme sluggishness, uncoordinated movement, protruding vulva, growth arrest and early larval lethality”. Besides, the “weak uncoordinated phenotype, proportion of worms (plate)” value with C. elegans [2] (6-OHDA, 30 min exposure) is on record as “one-quarter”. The “morphological defects on plate” value in the series with C. elegans [2] (6-OHDA, 4 hr exposure) was “morphological defects such as protruding vulva (Pvl)”. Moreover, the “uncoordinated phenotype, proportion of animals (plate)” value in the series on C. elegans [2] (6-OHDA, 4 hr exposure) came out at 86%.
Turning to `CN1CC=C(c2ccccc2)CC1` [MPTP, 1-methyl 4-phenyl 1,2,3,6-tetrahydropyridine], the “electrotactic response in channel” value with C. elegans [1] (700 μM MPTP for up to 8 hrs) is “obvious defects in the channel assay”. The “head movement defects, proportion of worms” value in the series with C. elegans [1] (MPTP, 4 hr exposure) is 80%. Besides, the “movement speed response of toxin-treated animals” value with C. elegans [1] is listed as “wild type response in all 3 conditions tested”. In the series on C. elegans [2] (700 μM MPTP for up to 8 hrs), the “appearance on NG agar plates” value is “fairly active and healthy”. Also, the “phenotype of treated L1 worms” value in the series on C. elegans [2] (1.4 mM MPTP for 3 days) was “almost completely uncoordinated and paralyzed”. For the same compound, the “movement defects on plate” value in the series with C. elegans [2] is “only subtle and low penetrant movement defects”.
With `C=C(C)[C@H]1Cc2c(ccc3c2O[C@@H]2COc4cc(OC)c(OC)cc4[C@@H]2C3=O)O1` [Rotenone], the “electrotactic movement” value with C. elegans [1] (25 μM Rotenone for 1-8 hr) is “abnormal electrotactic movement”. In the series on C. elegans [1] (Rotenone exposure), the “defect in the speed of animals” value stood at 48%. For the same compound, the “abnormal head movement response, proportion of worms” value with C. elegans [1] (Rotenone, after 8 hrs of toxin exposure) is “up to 30%”. Also, the “appearance on the plate” value in the series with C. elegans [2] (25 μM Rotenone for 1-8 hr) is “largely healthy”. Besides, the “morphology of exposed worms” value with C. elegans [2] (25 μM rotenone for less than 12 hrs) is on record as “morphological defects similar to MPTP”. Also, the “movement defects on plate” value in the series with C. elegans [2] is “only subtle and low penetrant movement defects”.
As for `CC(=O)Nc1ccc(O)cc1` [acetaminophen], in the series with C. elegans [3] (MPTP), the “decrease of U-turn defect” value stood at 30% and the “decrease of head movement defect” value stood at 40%. Moreover, in the series on C. elegans [3] (Rotenone), the “decrease of abnormalities in U-turn response” value is given as 50%, the “decrease of abnormalities in speed” value amounted to 38% and the “decrease of head movement defect” value was found to be 20%.
Turning to `c1ccc([C@H]2CN3CCSC3=N2)cc1` [levamisole], the “movement response in microfluidic channel” value in the series on C. elegans [1] (10 μM levamisole, only 5 worms tested) was “reduced movement”.
